Results as given in patent publication US10888087B2, “Lactam solubility” (Conopco, Inc., priority 2015, dated 2021).

Experiment: Screening of NIS: lactam solubility in water or water + non-ionic surfactant additive, quantified by HPLC
Assay type: physicochemical
Design: key to Solubility Increase vs water alone: fold: lactam dissolved in water+additive / lactam dissolved in water
Conditions: for Mean Lactam Level in Solution (ppm): 48 hours agitation
Experimental: The following representative example uses 4-(4-chlorophenyl)-5-methylene-pyrrol-2-one.
Excess solid lactam (˜3 mg) was placed in a Whatman® Mini Uniprep sample vial, fitted with a 0.45 um nylon filter. Water or water+additive (NIS) (500 μL) was added the mixture shaken and tapped briefly to initially disperse the solid and the mixture then agitated for 48 hours using a plate shaker fitted with a vial holder. After 48 hours, the solid was removed from the system by pressing down the plunger with integral filter on the vial. This removes the solid and provides filtered solution within the inner chamber which is then ready for analysis.
The level of lactam dissolved in solution was quantified using HPLC analysis. Samples were analysed on an Agilent 1200® series HPLC fitted with a Thermo Hypersil Gold® C18 column (15×2.1×3 μm), isocratic elution with 60/40 methanol/water (+0.1% Formic Acid), 0.4 mL/min flow rate, using a DAD detector at 285 nm. The lactam tested has a retention time of ˜2.8 minutes.
For each additive, the absolute level of lactam in solution was measured and reported as an increase in solubility of lactam relative to water alone.
Each test surfactant solution was tested in triplicate and the mean value of lactam in solution calculated. Values of solubility were quoted as the improvement in aqueous solubility vs water alone (i.e. mean level of lactam dissolved in water+solvent/mean level of lactam dissolved in water) to allow comparison between screens conducted on different days.

[1] = Neodol 25-7, 0% additive in water
[2] = Neodol 25-7, 0.5% additive in water
[3] = Neodol 25-7, 1% additive in water
[4] = Neodol 25-7, 2% additive in water
[5] = Neodol 25-7, 5% additive in water
[6] = Neodol 25-7, 10% additive in water
[7] = Neodol 25-7, 20% additive in water
[8] = Tween 20, 0.5% additive in water
[9] = Tween 20, 10% additive in water
[10] = Tween 20, 20% additive in water
[11] = Tween 80, 0.5% additive in water
[12] = Tween 80, 10% additive in water

With `C=C1NC(=O)C=C1c1ccc(Cl)cc1` [Ref. 488, 4-(4-chlorophenyl)-5-methylene-pyrrol-2-one] as the molecule, how does the “Solubility Increase vs water alone” value [1] read?
The value was 1.0.

And the “Mean Lactam Level in Solution (ppm)” value [1]?
Its value is 2.4 ppm.

What about the “Solubility Increase vs water alone” value [2] of the same molecule?
The value was 48.3.

And the “Mean Lactam Level in Solution (ppm)” value [2]?
The value was 116.0 ppm.

And the “Solubility Increase vs water alone” value [3]?
The value was 84.7.

And the “Mean Lactam Level in Solution (ppm)” value [3]?
The value was 203.2 ppm.

And the “Solubility Increase vs water alone” value [4]?
The value was 162.7.

What about the “Mean Lactam Level in Solution (ppm)” value [4] of the same molecule?
Its value is 390.4 ppm.

And the “Solubility Increase vs water alone” value [5]?
Its value is 251.4.

What about the “Mean Lactam Level in Solution (ppm)” value [5] of the same molecule?
The value was 603.3 ppm.

And the “Solubility Increase vs water alone” value [6]?
Its value is 255.2.

And the “Mean Lactam Level in Solution (ppm)” value [6]?
Its value is 612.5 ppm.

What about the “Solubility Increase vs water alone” value [7] of the same molecule?
The value was 189.8.

And the “Mean Lactam Level in Solution (ppm)” value [7]?
The value was 455.6 ppm.

And the “Solubility Increase vs water alone” value (Tween 20, 0% additive in water)?
The value was 1.0.

What about the “Mean Lactam Level in Solution (ppm)” value (Tween 20, 0% additive in water) of the same molecule?
The value was 1.7 ppm.

And the “Solubility Increase vs water alone” value [8]?
Its value is 36.9.

And the “Mean Lactam Level in Solution (ppm)” value [8]?
Its value is 61.6 ppm.

And the “Solubility Increase vs water alone” value (Tween 20, 1% additive in water)?
The value was 70.9.

What about the “Mean Lactam Level in Solution (ppm)” value (Tween 20, 1% additive in water) of the same molecule?
Its value is 118.3 ppm.

And the “Solubility Increase vs water alone” value (Tween 20, 2% additive in water)?
Its value is 135.8.

And the “Mean Lactam Level in Solution (ppm)” value (Tween 20, 2% additive in water)?
Its value is 226.5 ppm.

And the “Solubility Increase vs water alone” value (Tween 20, 5% additive in water)?
Its value is 310.7.

What about the “Mean Lactam Level in Solution (ppm)” value (Tween 20, 5% additive in water) of the same molecule?
The value was 518.3 ppm.

And the “Solubility Increase vs water alone” value [9]?
Its value is 497.3.

What about the “Mean Lactam Level in Solution (ppm)” value [9] of the same molecule?
The value was 829.6 ppm.

And the “Solubility Increase vs water alone” value [10]?
Its value is 927.0.

And the “Mean Lactam Level in Solution (ppm)” value [10]?
Its value is 1546.3 ppm.

And the “Solubility Increase vs water alone” value (Tween 80, 0% additive in water)?
Its value is 1.00.

What about the “Mean Lactam Level in Solution (ppm)” value (Tween 80, 0% additive in water) of the same molecule?
The value was 6.0 ppm.

What about the “Solubility Increase vs water alone” value [11] of the same molecule?
The value was 6.92.

What about the “Mean Lactam Level in Solution (ppm)” value [11] of the same molecule?
The value was 41.5 ppm.

And the “Solubility Increase vs water alone” value (Tween 80, 1% additive in water)?
Its value is 12.51.

What about the “Mean Lactam Level in Solution (ppm)” value (Tween 80, 1% additive in water) of the same molecule?
Its value is 75.0 ppm.

What about the “Solubility Increase vs water alone” value (Tween 80, 2% additive in water) of the same molecule?
The value was 20.56.

And the “Mean Lactam Level in Solution (ppm)” value (Tween 80, 2% additive in water)?
The value was 123.3 ppm.

What about the “Solubility Increase vs water alone” value (Tween 80, 5% additive in water) of the same molecule?
The value was 34.74.

And the “Mean Lactam Level in Solution (ppm)” value (Tween 80, 5% additive in water)?
The value was 208.4 ppm.

And the “Solubility Increase vs water alone” value [12]?
Its value is 65.23.

And the “Mean Lactam Level in Solution (ppm)” value [12]?
Its value is 391.4 ppm.
